In one experiment the target is T1, ALDH1A1 enzyme (Homo sapiens, UniProt P00352).
T1 sequence (P00352 1-501): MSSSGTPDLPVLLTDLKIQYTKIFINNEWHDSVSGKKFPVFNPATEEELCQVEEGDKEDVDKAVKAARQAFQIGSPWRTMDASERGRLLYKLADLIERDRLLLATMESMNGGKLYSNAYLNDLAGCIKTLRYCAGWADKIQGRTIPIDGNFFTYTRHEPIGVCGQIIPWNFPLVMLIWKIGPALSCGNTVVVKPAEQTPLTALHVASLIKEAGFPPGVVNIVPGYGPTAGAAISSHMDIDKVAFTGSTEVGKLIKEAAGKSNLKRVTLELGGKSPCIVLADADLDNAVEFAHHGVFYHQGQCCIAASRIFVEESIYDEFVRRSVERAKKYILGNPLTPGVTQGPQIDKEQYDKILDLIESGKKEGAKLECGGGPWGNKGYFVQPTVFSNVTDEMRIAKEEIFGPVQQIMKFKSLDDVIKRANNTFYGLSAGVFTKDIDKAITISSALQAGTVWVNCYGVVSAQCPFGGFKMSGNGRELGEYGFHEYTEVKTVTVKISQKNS
As to the kind of experiment: ALDH1A1 enzymatic assay (in vitro). The settings on record: ALDH1A1 enzyme 20 nM, NAD+ 1 mM, propionaldehyde 80 μM; read-out: ALDH1A1 IC50. The class given is biochemical. A digest of the protocol:
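ALDH1A1 (20 nM final) in 100 mM HEPES pH 7.5, 0.01% Tween 20 was preincubated 15 min at RT with compound (968 pM–57.2 μM final), then started with 1 mM NAD+ and 80 μM propionaldehyde. NADH fluorescence (ex 340/em 450 nm) followed kinetically for 10 min; change normalized to no-inhibitor and no-enzyme controls for percent inhibition and curve fitting.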

For another experiment, the system named is MIA PaCa-2 cells. In words: MIA PaCa2 cell-based assay (1,536-well high-content imaging ALDEFLUOR assay). The following applies: Homo sapiens, 0.5 h, ALDEFLUOR BAAA substrate 500 nM, 30 minutes. The arrangement: species or system human. A digest of the protocol:
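High-content ALDEFLUOR imaging readout: BAA-retaining cells in FITC channel scored against Hoechst-counted nuclei. Before imaging, MIA PaCa-2 cells seeded at 1,000 per well received final 500 nM BAAA and 0.5 nM Hoechst with compounds in 16-point series (1.4 nM to 47.8 μM), 30 min, 37° C.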

pIC50: −log10 of the molar value.

Among the data in patent US11795177B2, “Substituted quinoline analogs as aldehyde dehydrogenase 1A1 (ALDH1A1) inhibitors” (THE UNITED STATES OF AMERICA, AS REPRESENTED BY THE …, priority 2017, dated 2023) are IC50 values, retold here.

Usually pIC50 stands for −log10 of the IC50, conventionally taken in molar units. Take `C[C@@H]1CN(C(=O)c2cnc3ccc(F)cc3c2N2CCC(C)(C#N)CC2)C[C@H](C)N1C(=O)C1CC1` [Example 228, 1-(3-((3R*,5S*)-4-(cyclopropanecarbonyl)-3,5-dimethylpiperazine-1-carbonyl)-6-fluoroquinolin-4-yl)-4-methylpiperidine-4-carbonitrile]: the pIC50 on ALDH1A1 enzyme was 5.00 to 6.00; in the experiment on MIA PaCa-2 cells it was < 5.00.
For `CC1(C#N)CCN(c2c(C(=O)N3CCN(S(C)(=O)=O)C4(CC4)C3)cnc3ccc(F)cc23)CC1` [Example 230, 1-(6-fluoro-3-(4-(methylsulfonyl)-4,7-diazaspiro[2.5]octane-7-carbonyl)quinolin-4-yl)-4-methylpiperidine-4-carbonitrile], the pIC50 was > 6.30 on ALDH1A1 enzyme and 5.00 to 6.00 with MIA PaCa-2 cells.
Consider `CC1(C#N)CCN(c2c(C(=O)N3CCN(C(=O)C4CC4)C(C)(C)C3)cnc3ccc(F)cc23)CC1` [Example 231, 1-(3-(4-(cyclopropanecarbonyl)-3,3-dimethylpiperazine-1-carbonyl)-6-fluoroquinolin-4-yl)-4-methylpiperidine-4-carbonitrile], for which the pIC50 on ALDH1A1 enzyme and with MIA PaCa-2 cells was < 5.00 in each case.
Consider `CC1(C#N)CCN(c2c(C(=O)N3CCN(C(=O)C4CC4)C4(CC4)C3)cnc3ccc(F)cc23)CC1` [Example 232, 1-(3-(4-(cyclopropanecarbonyl)-4,7-diazaspiro[2.5]octane-7-carbonyl)-6-fluoroquinolin-4-yl)-4-methylpiperidine-4-carbonitrile], for which the pIC50 was > 6.30 at ALDH1A1 enzyme and 5.00 to 6.00 with MIA PaCa-2 cells.
For `CC1(C#N)CCN(c2c(C(=O)N3CCN(C(=O)C4CC4)CC3)cnc3[nH]ncc23)CC1` [Example 237, 1-(5-(4-(cyclopropanecarbonyl)piperazine-1-carbonyl)-1H-pyrazolo[3,4-b]pyridin-4-yl)-4-methylpiperidine-4-carbonitrile] the same measures were 5.00 to 6.00 and < 5.00.
For `C[C@H]1CN(C(=O)C2CC2)CCN1C(=O)c1cnc2ccc(F)cc2c1N1CCC(C)(C#N)CC1` [Example 238, (s)-1-(3-(4-(cyclopropanecarbonyl)-2-methylpiperazine-1-carbonyl)-6-fluoroquinolin-4-yl)-4-methylpiperidine-4-carbonitrile] the same measures were 5.00 to 6.00 and < 5.00.
On to `C[C@@H]1CN(C(=O)C2CC2)CCN1C(=O)c1cnc2ccc(F)cc2c1N1CCC(C)(C#N)CC1` [Example 239, (R)-1-(3-(4-(cyclopropanecarbonyl)-2-methylpiperazine-1-carbonyl)-6-fluoroquinolin-4-yl)-4-methylpiperidine-4-carbonitrile], for which the pIC50 at ALDH1A1 enzyme was > 6.30; in the experiment with MIA PaCa-2 cells, 5.00 to 6.00.
For `C[C@@H]1CN(C(=O)C2CC2)C[C@H](C)N1C(=O)c1cnc2ccc(F)cc2c1N1CCC(C)(C#N)CC1` [Example 240, 1-(3-((2S*,6R*)-4-(cyclopropanecarbonyl)-2,6-dimethylpiperazine-1-carbonyl)-6-fluoroquinolin-4-yl)-4-methylpiperidine-4-carbonitrile] the same measures were 5.00 to 6.00 and < 5.00.
On to `C[C@@H]1CN(S(C)(=O)=O)CCN1C(=O)c1cnc2ccc(F)cc2c1N1CCC(C)(C#N)CC1` [Example 241, (R)-1-(6-fluoro-3-(2-methyl-4-(methylsulfonyl)piperazine-1-carbonyl)quinolin-4-yl)-4-methylpiperidine-4-carbonitrile], for which the pIC50 at ALDH1A1 enzyme was 5.00 to 6.00; in the experiment with MIA PaCa-2 cells, < 5.00.
With `CS(=O)(=O)N1CCN(C(=O)c2cnc3ccc(F)cc3c2N2CCC(C#N)(CC3CC3)CC2)CC1` [Example 243, 4-(cyclopropylmethyl)-1-(6-fluoro-3-(4-(methylsulfonyl)piperazine-1-carbonyl)quinolin-4-yl)piperidine-4-carbonitrile], the negative logarithm of the IC50 (pIC50) at ALDH1A1 enzyme and in the experiment with MIA PaCa-2 cells was > 6.30 throughout.
As for `O=C(c1cnc2ccc(F)cc2c1N1CCC2(CC1)C(=O)Cc1ccccc12)N1CCN(C(=O)C2CC2)CC1` [Example 246, 1′-(3-(4-(cyclopropanecarbonyl)piperazine-1-carbonyl)-6-fluoroquinolin-4-yl)spiro[indene-1,4′-piperidin]-2(3H)-one], the pIC50 was > 6.30 on ALDH1A1 enzyme and 5.00 to 6.00 in the experiment on MIA PaCa-2 cells.
With `O=C(c1cnc2ccc(F)cc2c1N1CCC2(CCOC2=O)CC1)N1CCN(C(=O)C2CC2)CC1` [Example 248, 8-(3-(4-(cyclopropanecarbonyl)piperazine-1-carbonyl)-6-fluoroquinolin-4-yl)-2-oxa-8-azaspiro[4.5]decan-1-one], the negative-log IC50 (pIC50) at ALDH1A1 enzyme is > 6.30; in the experiment with MIA PaCa-2 cells, 5.00 to 6.00.
Take `CS(=O)(=O)N1CCN(C(=O)c2cnc3ccc(F)cc3c2N2CCC3(CCOC3=O)CC2)CC1` [Example 249, 8-(6-fluoro-3-(4-(methylsulfonyl)piperazine-1-carbonyl)quinolin-4-yl)-2-oxa-8-azaspiro[4.5]decan-1-one]: the pIC50 at ALDH1A1 enzyme is > 6.30; in the experiment with MIA PaCa-2 cells, 5.00 to 6.00.
Regarding `O=C(c1cnc2ccc(F)cc2c1N1CCC2(CCCC2=O)CC1)N1CCN(C(=O)C2CC2)CC1` [Example 250, 8-(3-(4-(cyclopropanecarbonyl)piperazine-1-carbonyl)-6-fluoroquinolin-4-yl)-8-azaspiro[4.5]decan-1-one], the pIC50 on ALDH1A1 enzyme is > 6.30; with MIA PaCa-2 cells, 5.00 to 6.00.
Regarding `CS(=O)(=O)N1CCN(C(=O)c2cnc3ccc(F)cc3c2N2CCC3(CCCC3=O)CC2)CC1` [Example 251, 8-(6-fluoro-3-(4-(methylsulfonyl)piperazine-1-carbonyl)quinolin-4-yl)-8-azaspiro[4.5]decan-1-one], the figures for the negative-log IC50 (pIC50) on ALDH1A1 enzyme and in the experiment with MIA PaCa-2 cells were > 6.30 and 6.00 to 6.30, respectively.
Take `CS(=O)(=O)N1CCN(C(=O)c2cnc3ccc(F)cc3c2N2CCN(S(=O)(=O)C3CC3)CC2)CC1` [Example 252, (4-(4-(cyclopropylsulfonyl)piperazin-1-yl)-6-fluoroquinolin-3-yl)(4-(methylsulfonyl)piperazin-1-yl)methanone]: the pIC50 was > 6.30 on ALDH1A1 enzyme and < 5.00 with MIA PaCa-2 cells.
For the molecule `CC(O)C1(c2ccccc2)CCN(c2c(C(=O)N3CCN(S(C)(=O)=O)CC3)cnc3ccc(F)cc23)CC1` (stereo not shown) [Example 253, (6-fluoro-4-(4-(1-hydroxyethyl)-4-phenylpiperidin-1-yl)quinolin-3-yl)(4-(methylsulfonyl)piperazin-1-yl)methanone], the pIC50 at ALDH1A1 enzyme was > 6.30; with MIA PaCa-2 cells it was < 5.00.
With `CS(=O)(=O)N1CCN(C(=O)c2cnc3ccc(F)cc3c2N2CCN(S(=O)(=O)c3ccccc3)CC2)CC1` [Example 254, (6-fluoro-4-(4-(phenylsulfonyl)piperazin-1-yl)quinolin-3-yl)(4-(methylsulfonyl)piperazin-1-yl)methanone], the pIC50 on ALDH1A1 enzyme and with MIA PaCa-2 cells was > 6.30 each time.
As for `O=C(c1cnc2ccc(F)cc2c1N1CCC(CO)(c2ccccc2)CC1)N1CCN(C(=O)C2CC2)CC1` [Example 255, (4-(cyclopropanecarbonyl)piperazin-1-yl)(6-fluoro-4-(4-(hydroxymethyl)-4-phenylpiperidin-1-yl)quinolin-3-yl)methanone], the results for the pIC50 at ALDH1A1 enzyme and in the experiment with MIA PaCa-2 cells were 5.00 to 6.00 and < 5.00, respectively.
Regarding `CC(C)(O)C1(c2ccccc2)CCN(c2c(C(=O)N3CCN(S(C)(=O)=O)CC3)cnc3ccc(F)cc23)CC1` [Example 258, (6-fluoro-4-(4-(2-hydroxypropan-2-yl)-4-phenylpiperidin-1-yl)quinolin-3-yl)(4-(methylsulfonyl)piperazin-1-yl)methanone], the pIC50 at ALDH1A1 enzyme is 6.00 to 6.30; in the experiment with MIA PaCa-2 cells, 5.00 to 6.00.
Consider `CC(C)(C#N)c1ccc(-c2c(C(=O)N3CCC(S(C)(=O)=O)CC3)cnc3ccc(F)cc23)cc1` [Example 259, 2-(4-(6-fluoro-3-(4-(methylsulfonyl)piperidine-1-carbonyl)quinolin-4-yl)phenyl)-2-methylpropanenitrile], for which the pIC50 on ALDH1A1 enzyme and in the experiment on MIA PaCa-2 cells was > 6.30 throughout.
As for `CN(C)S(=O)(=O)N1CCN(C(=O)c2cnc3ccc(F)cc3c2-c2ccc(C(C)(C)C#N)cc2)CC1` [Example 261, 4-(4-(4-(2-cyanopropan-2-yl)phenyl)-6-fluoroquinoline-3-carbonyl)-N,N-dimethylpiperazine-1-sulfonamide], the negative logarithm of the IC50 (pIC50) on ALDH1A1 enzyme and with MIA PaCa-2 cells was > 6.30 throughout.
For the molecule `CN(C)C(=O)N1CCN(C(=O)c2cnc3ccc(F)cc3c2-c2ccc(C(C)(C)C#N)cc2)CC1` [Example 263, 4-(4-(4-(2-cyanopropan-2-yl)phenyl)-6-fluoroquinoline-3-carbonyl)-N,N-dimethylpiperazine-1-carboxamide], the pIC50 on ALDH1A1 enzyme and in the experiment on MIA PaCa-2 cells was > 6.30 throughout.
